The results in this text go back to ChEMBL document CHEMBL5634099, “Pyrrole-thiazolidinone hybrids as a new structural class of broad-spectrum anti-infectives” (Eur J Med Chem, 2023).

The structures appear in SMILES notation. Values after ≈ are worked out from the molar mass of the structure shown.

What all share (type): functional
In test [1] the test system is Escherichia coli. Nature of the test: Antibacterial activity against Escherichia coli ATCC 25922 assessed as bacterial growth inhibition incubated for 16 to 18 hrs by CLSI based susceptibility testing method. The following applies: time 16-18 hrs.
The test system of test [2] is Staphylococcus aureus. Nature of the test: Antibacterial activity against Staphylococcus aureus ATCC 29213 assessed as bacterial growth inhibition incubated for 16 to 18 hrs by CLSI based susceptibility testing method. The following applies: time 16-18 hrs.
In test [3] the test system is Klebsiella pneumoniae. Nature of the test: Antibacterial activity against Klebsiella pneumoniae BAA 1705 assessed as bacterial growth inhibition incubated for 16 to 18 hrs by CLSI based susceptibility testing method. The settings on record: time 16-18 hrs.
The subject of test [4] is Acinetobacter baumannii. Nature of the test: Antibacterial activity against Acinetobacter baumannii BAA 1605 assessed as bacterial growth inhibition incubated for 16 to 18 hrs by CLSI based susceptibility testing method. The following applies: time 16-18 hrs.
Test [5] concerns Pseudomonas aeruginosa. Nature of the test: Antibacterial activity against Pseudomonas aeruginosa ATCC 27853 assessed as bacterial growth inhibition incubated for 16 to 18 hrs by CLSI based susceptibility testing method. The settings on record: time 16-18 hrs.
Test [6] relates to Mycobacterium tuberculosis. Nature of the test: Antimycobacterial activity against Mycobacterium tuberculosis H37Rv ATCC 27294 assessed as bacterial growth inhibition incubated for 7 days by resazurin dye based assay. The settings on record: H37Rv ATCC 27294, 168 h, time 7 day. In general terms: The colour change of resazurin is a common sign of viable cells or microbes.
For test [7], the system named is Mycobacteroides abscessus. Nature of the test: Antimycobacterial activity against Mycobacterium abscessus ATCC 19977 assessed as bacterial growth inhibition incubated for 7 days by resazurin dye based assay. The settings on record: ATCC 19977, 168 h, time 7 day.
Test [8] relates to Mycolicibacterium fortuitum. Nature of the test: Antimycobacterial activity against Mycobacterium fortuitum ATCC 6841 assessed as bacterial growth inhibition incubated for 7 days by resazurin dye based assay. The settings on record: ATCC 6841, 168 h, time 7 day.
Test [9] deals with Mycobacteroides chelonae. Nature of the test: Antimycobacterial activity against Mycobacteroides chelonae ATCC 35752 assessed as bacterial growth inhibition incubated for 7 days by resazurin dye based assay. The settings on record: ATCC 35752, 168 h, time 7 day.

In the case of `Cc1cc(/C=C2\S/C(=N/c3nccs3)NC2=O)c(C)n1-c1ccc(F)cc1`, the MIC in [1] is over 64 µg/mL; in test [2], over 64 µg/mL; in [3], over 64 µg/mL; in test [4], over 64 µg/mL; in test [5], over 64 µg/mL; in [6] it was 4 µg/mL (≈ 10 µM). Besides, the MIC in test [7], in [8] and in test [9] was over 64 µg/mL throughout.
Take `Cc1cc(/C=C2\S/C(=N/c3nccs3)NC2=O)c(C)n1-c1ccc(Cl)cc1`: the MIC in test [1] is over 64 µg/mL; in [2], 4 µg/mL (≈ 9.64 µM); in [3], over 64 µg/mL; in test [4], over 64 µg/mL; in [5] it was over 64 µg/mL; in test [6], 8 µg/mL (≈ 19.3 µM). For the same compound, the MIC in [7], in [8] and in test [9] was over 64 µg/mL in each case.
For `Cc1nc(/N=C2\NC(=O)/C(=C/c3cc(C)n(-c4cccc(Cl)c4)c3C)S2)sc1C`, the MIC in test [1] was over 64 µg/mL; in test [2] it was over 64 µg/mL; in test [3], over 64 µg/mL; in test [4], over 64 µg/mL; in test [5], over 64 µg/mL; in [6], 4 µg/mL (≈ 9.03 µM). In addition, the MIC in test [7], in [8] and in test [9] was over 64 µg/mL in each case.
Take `COc1ccc(-n2c(C)cc(/C=C3\S/C(=N/c4nc(C)c(C)s4)NC3=O)c2C)cc1`: the MIC in test [1], in test [2], in [3], in [4], in [5] and in test [6] was over 64 µg/mL throughout. For the same compound, the MIC in [7], in test [8] and in [9] was over 64 µg/mL each time.
Consider `Cc1nc(/N=C2\NC(=O)/C(=C/c3cc(C)n(-c4ccccc4Cl)c3C)S2)sc1C`, for which the MIC in test [1] is over 64 µg/mL; in [2], over 64 µg/mL; in test [3], over 64 µg/mL; in test [4] it was over 64 µg/mL; in test [5], over 64 µg/mL; in test [6], 2 µg/mL (≈ 4.51 µM). Besides, the MIC in test [7], in test [8] and in test [9] was over 64 µg/mL each time.
Consider `COc1ccc(-n2c(C)cc(/C=C3\S/C(=N/c4nccs4)NC3=O)c2C)cc1`, for which the MIC in test [1] is over 64 µg/mL; in test [2] it was 2 µg/mL (≈ 4.87 µM); in [3] it was over 64 µg/mL; in test [4], over 64 µg/mL; in test [5], over 64 µg/mL; in [6], 64 µg/mL (≈ 156 µM). In addition, the MIC in [7], in test [8] and in test [9] was over 64 µg/mL throughout.
As for `Cc1cc(/C=C2\S/C(=N/c3nccs3)NC2=O)c(C)n1-c1ccccc1O`, the MIC in test [1] was over 64 µg/mL; in [2] it was 1 µg/mL (≈ 2.52 µM); in test [3], over 64 µg/mL; in [4] it was over 64 µg/mL; in [5], over 64 µg/mL; in [6] it was 16 µg/mL (≈ 40.4 µM). Also, the MIC in test [7], in test [8] and in [9] was over 64 µg/mL in each case.
As for `Cc1cc(/C=C2\S/C(=N/c3nccs3)NC2=O)c(C)n1-c1ccccc1Br`, the MIC in test [1] was over 64 µg/mL; in [2], 4 µg/mL (≈ 8.71 µM); in test [3] it was over 64 µg/mL; in test [4] it was over 64 µg/mL; in [5], over 64 µg/mL; in [6], 8 µg/mL (≈ 17.4 µM). Moreover, the MIC in test [7], in [8] and in test [9] was over 64 µg/mL each time.
In the case of `Cc1nc(/N=C2\NC(=O)/C(=C/c3cc(C)n(-c4ccccc4)c3C)S2)sc1C`, the MIC in [1], in [2], in test [3], in test [4], in test [5] and in [6] was over 64 µg/mL in each case. In addition, the MIC in test [7], in test [8] and in test [9] was over 64 µg/mL in each case.
Turning to `COc1ccc(-n2c(C)cc(/C=C3\S/C(=N/c4nc(C)c(C)s4)NC3=O)c2C)cc1OC`, the MIC was over 64 µg/mL in [1]; 64 µg/mL (≈ 137 µM) in [2]; over 64 µg/mL in [3]; over 64 µg/mL in [4]; over 64 µg/mL in test [5]; over 64 µg/mL in test [6]. The MIC in test [7], in test [8] and in test [9] was over 64 µg/mL each time.
Turning to `Cc1ccc(-n2c(C)cc(/C=C3\S/C(=N/c4nccs4)NC3=O)c2C)cc1`, the MIC in [1] was over 64 µg/mL; in test [2] it was 4 µg/mL (≈ 10.1 µM); in test [3], over 64 µg/mL; in test [4], over 64 µg/mL; in test [5], over 64 µg/mL; in test [6], 8 µg/mL (≈ 20.3 µM). The MIC in [7], in [8] and in test [9] was over 64 µg/mL throughout.
With `Cc1nc(/N=C2\NC(=O)/C(=C/c3cc(C)n(-c4ccc([N+](=O)[O-])cc4)c3C)S2)sc1C`, the MIC in test [1], in [2], in test [3], in [4], in [5] and in [6] was over 64 µg/mL throughout. Besides, the MIC in test [7], in test [8] and in test [9] was over 64 µg/mL in each case.
For the compound `Cc1cc(/C=C2\S/C(=N/c3nccs3)NC2=O)c(C)n1-c1cc(Cl)ccc1O`, the MIC in test [1] is over 64 µg/mL; in test [2] it was 1 µg/mL (≈ 2.32 µM); in test [3], over 64 µg/mL; in test [4], over 64 µg/mL; in test [5], over 64 µg/mL; in [6], 32 µg/mL (≈ 74.3 µM). Further, the MIC in test [7], in test [8] and in test [9] was over 64 µg/mL each time.
`COc1ccccc1-n1c(C)cc(/C=C2\S/C(=N/c3nc(C)c(C)s3)NC2=O)c1C`: the MIC in [1], in [2], in [3], in [4], in [5] and in [6] was over 64 µg/mL in each case. In addition, the MIC in [7], in [8] and in [9] was over 64 µg/mL in each case.
Take `Cc1ccc(-n2c(C)cc(/C=C3\S/C(=N/c4nc(C)c(C)s4)NC3=O)c2C)cc1C`: the MIC in [1] was over 64 µg/mL; in [2] it was over 64 µg/mL; in test [3], over 64 µg/mL; in [4] it was over 64 µg/mL; in [5], over 64 µg/mL; in [6] it was 4 µg/mL (≈ 9.16 µM). Moreover, the MIC in test [7], in test [8] and in test [9] was over 64 µg/mL in each case.
With `Cc1cc(/C=C2\S/C(=N/c3nccs3)NC2=O)c(C)n1-c1ccccc1Cl`, the MIC is over 64 µg/mL in test [1]; 4 µg/mL (≈ 9.64 µM) in test [2]; over 64 µg/mL in test [3]; over 64 µg/mL in test [4]; over 64 µg/mL in test [5]; 16 µg/mL (≈ 38.6 µM) in test [6]. For the same compound, the MIC in [7], in test [8] and in test [9] was over 64 µg/mL each time.
`Cc1nc(/N=C2\NC(=O)/C(=C/c3cc(C)n(-c4cccc(F)c4)c3C)S2)sc1C`: the MIC in test [1] is over 64 µg/mL; in test [2], over 64 µg/mL; in [3] it was over 64 µg/mL; in test [4], over 64 µg/mL; in test [5] it was over 64 µg/mL; in test [6], 64 µg/mL (≈ 150 µM). In addition, the MIC in test [7], in [8] and in test [9] was over 64 µg/mL each time.

By MIC is commonly meant the lowest concentration found to suppress growth.
